Source: publication PMC9503778, “Targeted Isolation of Antibiotic Brominated Alkaloids from the Marine Sponge Pseudoceratina durissima Using Virtual Screening and Molecular Networking” (Marine Drugs, 2022)
Several values for one entry are separate records, joined by “and”; a condition that tells them apart may be missing. Equal entries are not always repeated. Where two headings read alike, the source gives them in different places.

Columns and labels:
[1] = test system: A. baumannii (G-) strain ATCC 19606; test: Antimicrobial growth inhibition (CO-ADD), A. baumannii; format: cell-based, Acinetobacter baumannii; details: for % inhibition A. baumannii: 32 µg/mL; for MIC / inhibition at 32 µg/mL: Acinetobacter baumannii
Description: (§1) Compounds 1−3 and 5−12 were assayed against a selection of medically important pathogenic microorganisms (MRSA, E. coli, K. pneumoniae, A. baumanii, P. aeruginosa, C. albicans, C. neoformans), Table 4. […] To the best of our knowledge this compound had not been tested against any drug resistant strain of Gram-positive bacterium until this study.
(§2) The antimicrobial activity testing was performed by the Community for Antimicrobial Drug Discovery (CO-ADD). Compounds were assayed against a range of both Gram negative and Gram positive bacteria (see Supplementary Materials S3) including methicillin-resistant Staphylococcus aureus (MRSA) (G+), Escherichia coli (G-), Klebsiella pneumoniae (G-), Acinetobacter baumannii (G-), Pseudomonas aeruginosa (G-) together with two species of fungus (Candida albicans and Cryptococcus neoformans).
(§3) S3. Antimicrobial activity testing methodology
The compounds submitted to CO-ADD were evaluated in duplicate (n = 2) against seven microorganisms (five bacteria and two fungi) at a concentration of 32 µg/mL in a 384-well, non-binding surface plate (NBS) for each bacterial/fungal strain, keeping the final DMSO concentration to a maximum of 1% DMSO. All bacteria were cultured in cation-adjusted Mueller-Hinton broth (CAMHB) at 37 °C overnight. A sample of each culture was then diluted 40-fold in fresh broth and incubated at 37 °C for 1.5-3 h. The resultant mid-log phase cultures were diluted (CFU/mL measured by OD600), then added to each well of the compound containing plates, giving a cell density of 5x10^5 CFU/mL and a total volume of 50 µL. All the plates were covered and incubated at 37 °C for 18 h without shaking. […] Inhibition of bacterial growth was determined measuring absorbance at 600 nm (OD600) using a Tecan M1000 Pro mon-ochromator plate reader. […]
(§4) 2 h. The absorbance was measured using a Biotek Synergy HTX plate reader. The percentage of growth inhibition was calculated for each well, using negative control (medium only) and positive control (bacteria without inhibitors) on the same plate as the references. The significance of inhibition values was determined by modified Z-scores, calculated using the median and MAD of the samples (no controls) on the same plate. Samples with inhibition value above 80% and Z-score above 2.5 for either replicate (n = 2 on different plates) were classed as actives.
(§5) Colistin and vancomycin were used as positive bacterial inhibitor standards for Gram-negative and Gram-positive bac-teria, respectively. Fluconazole was used as a positive fungal inhibitor standard for C. albicans and C. neoformans. The antibiotics were provided in four concentrations, with two above and two below its MIC value, and plated into the first eight wells of column 23 of the 384-well NBS plates. The quality control (QC) of the assays was determined by the antimicrobial controls and the Z’-factor (using positive and negative controls). Each plate was deemed to fulfil the qual- […]
(§6) full growth inhibition at their highest concentration, and no growth inhibition at their lowest concentration. The seven […]
(§7) test microorganisms were Staphylococcus aureus MRSA (ATCC 43300), Escherichia coli (ATCC 25922), Klebsiella pneu-moniae (ATCC 700603), Acinetobacter baumanii (ATCC19606), Pseudomonas aeruginosa (ATCC 27853), Candida albicans (ATCC 90028) and Cryptococcus neoformans var. grubii (H99; ATCC 208821).
(§8) S4. Anthelmintic activity testing methodology
Dose-response evaluations were carried out to estimate the half-maximal inhibitory concentrations (IC50 values) for compounds against Haemonchus contortus (Haecon-5 strain) exsheathed third-stage larvae (xL3s). H. contortus were maintained in experimental sheep and procured in accordance with the institutional animal ethics guidelines and the regulations of Australia (permit no. 1714374; University of Melbourne). Immediately prior to use, third-stage larvae (L3s) were exsheathed and sterilised by incubation in 0.15% (v/v) bleach at 38 °C for 20 min, followed by washes in […]

[2] = Cytotoxicity assay (CO-ADD); format: cell-based; details: human embryonic kidney cells
[3] = test system: C. neoformans var. grubii strain ATCC 208821; test: Antimicrobial growth inhibition (CO-ADD), C. neoformans; format: cell-based, Cryptococcus neoformans; details: for % inhibition C. neoformans: 32 µg/mL; for inhibition at 32 µg/mL: Cryptococcus neoformans
Description: as §1, §2, §3
The compounds submitted to CO-ADD were evaluated in duplicate (n = 2) against seven microorganisms (five bacteria and two fungi) at a concentration of 32 µg/mL in a 384-well, non-binding surface plate (NBS) for each bacterial/fungal strain, keeping the final DMSO concentration to a maximum of 1% DMSO. All bacteria were cultured in cation-adjusted […]
Fungal strains were cultured for 3 days on Yeast Extract-Peptone Dextrose (YPD) agar at 30 °C. A yeast suspension of 1 x 10^6 to 5 x 10^6 CFU/mL (as determined by OD530) was prepared from five colonies. The suspension was subsequently diluted and added to each well of the compound-containing plates giving a final cell density of fungi suspension of 2.5 x 10^3 CFU/mL and a total volume of 50 µL. All plates were covered and incubated at 35 °C for 24 h without shaking. […]
as §4, with “Growth inhibition of C. albicans was determined measuring absorbance at 530 nm (OD530), while the growth inhibition of C. neoformans was determined measuring the difference in absorbance between 600 and 570 nm (OD600-570), after the addition of resazurin (0.001% final concentration) and incubation at 35 °C for an additional 2 h.” for “2 h.”
as §5, §6, §7, §8
Dose-response evaluations were carried out to estimate the half-maximal inhibitory concentrations (IC50 values) for compounds against Haemonchus contortus (Haecon-5 strain) exsheathed third-stage larvae (xL3s). H. contortus were maintained in experimental sheep and procured in accordance with the institutional animal ethics guidelines and the […]

[4] = ATCC19606, ATCC 19606, read-out: MIC A. baumannii
[5] = ATCC208821, read-out: % inhibition C. neoformans, 32 µg/mL, duplicate (n = 2) values
[6] = ATCC19606, 32 µg/mL, duplicate (n = 2) values, read-out: % inhibition A. baumannii
[7] = ATCC19606, read-out: % inhibition A. baumannii, 32 µg/mL, duplicate (n = 2) values

Row | Compound | % inhibition A. baumannii ([1]; duplicate (n = 2) values) | MIC [1, 4] [µg/mL] | CC50 [2] [µg/mL] | % inhibition C. neoformans ([3]; duplicate (n = 2) values) | inhibition at 32 µg/mL [3, 5] [%] | MIC ([1]; ATCC19606, read-out: MIC A. baumannii) [µg/mL] | inhibition at 32 µg/mL [1, 6] [%] | CC50 ([2]; human) [µg/mL] | inhibition at 32 µg/mL ([3]; ATCC208821, 32 µg/mL, duplicate (n = 2) values, read-out: % inhibition C. neoformans) [%] | inhibition at 32 µg/mL [1, 7] [%]
1 | COC1=C(Br)[C@H](O)[C@@]2(C=C1Br)CC(C(=O)NCCCOc1c(Br)cc(CCN)cc1Br)=NO2 [Compound 11, araplysillin I] | 3.4% and 7.3% | > 32 | > 32 | 7.8% | 7.6 |  |  |  |  | 
2 | COC1=C(Br)[C@H](O)[C@](O)(CC#N)C=C1Br [Compound 1, (+)-aeroplysinin-1] |  |  | > 32 | −6.6% and 0.0% |  | > 32 |  |  |  | 
3 | NC(=O)Cc1c(O)cc(Br)c(O)c1Br [Compound 9, subereaphenol A] | 18.5% | > 32 |  | 11.9% |  |  | 10.8 | > 32 | 11.2 | 
4 | COC1=C(Br)[C@H](O)[C@@]2(C=C1Br)CC(C(=O)NCCCCCNC(=O)C1=NO[C@]3(C=C(Br)C(OC)=C(Br)[C@@H]3O)C1)=NO2 [Compound 3, homoaerothionin] | 9.8% | > 32 | > 32 | 16.1% | 10.6 |  |  |  |  | 13.8
5 | COC1=C(Br)[C@H](O)[C@@]2(C=C1Br)CC(C(=O)NCCCOc1c(Br)cc(CCNC(=O)C3=NO[C@]4(C=C(Br)C(OC)=C(Br)[C@@H]4O)C3)cc1Br)=NO2 [Compound 5, 11,17-deoxyfistularin-3] | 8.5% | > 32 | > 32 | 10.4% and 3.8% |  |  |  |  |  | 10.2
6 | COC1(OC)C(Br)=CC(O)(CC(N)=O)C=C1Br [Compound 6, 2-(3,5-dibromo-1-hydroxy-4,4-dimethoxycyclohexa-2,5-dien-1-yl)acetamide] | 2.3% and 9.7% | > 32 |  | 11.1% and 2.0% |  |  |  | > 32 |  | 
7 | COc1c(Br)cc(CC#N)c(O)c1Br [Compound 8, 2-(3,5-dibromo-2-hydroxy-4-methoxyphenyl)acetonitrile] | 7.5% | > 32 |  | 11.1% and 4.0% |  |  | 11 | > 32 |  | 
8 | COC1=C(Br)[C@H](O)[C@@]2(C=C1Br)CC(C(=O)NCCCCNC(=O)C1=NO[C@]3(C=C(Br)C(OC)=C(Br)[C@@H]3O)C1)=NO2 [Compound 2, aerothionin] |  | > 32 |  |  |  |  |  | > 32 |  | 
